Values of other authors, collected in patent publication US20160193372A1, “METHODS OF IDENTIFYING SURROGATE IMAGING AGENTS FOR ALPHA EMITTER RADIOPHARMACEUTICALS AND THEIR USE IN TREATMENT OF DISEASE” (THE JOHNS HOPKINS UNIVERSITY, priority 2012, published 2016).

Test system: mineralizing or proliferating bone matrix
Settings: very high administered activities

^153Sm-EDTMP
pain effect in OS: pain palliation | therapeutic efficacy in OS: minimal therapeutic efficacy
